Measurements: patent US6969590B2, “Use of a polypeptide for treatment of pruritus in animals” (Zengen, Inc., priority 2001, dated 2005)
“Also recorded” adds a separate entry of the source.

How the values were obtained:
C. albicans = C. albicans colony forming units (candidacidal activity); assay type: cell-based
Procedure: C. albicans (1×10^6/ml in HBSS) was incubated in the presence or absence or α-MSH (1-13) or α-MSH (11-13) at concentrations in the range of 10^−15 M to 10^−6 M for 2 hours at 37° C. Cells were then washed in cold distilled water and diluted with HBSS to a concentration of 100 organisms/ml. One-ml aliquots were dispensed on blood agar plates and incubated for 48 hours at 37° C. Organism viability was estimated from the number of colonies formed. In subsequent experiments using familiar procedures we compared activity of α-MSH (4-10), α-MSH (6-13), α-MSH (11-13), ACTH (1-39), (18-39) and fluconazole, the latter an established antifungal agent. Melanocortin peptides and fluconazole were tested in concentrations of 10^−6 M to 10^−4 M. There were at least six replicates for each concentration of peptide.

human neutrophils = assay: C. albicans killing by human neutrophils; assay type: cell-based; settings: 2 hours at 37° C., vs. medium
Procedure: Venous blood (20 ml) from healthy volunteers was anticoagulated with heparin. Neutrophils were isolated using dextran sedimentation and Ficoll-Hypaque (Sigma Chemical Co., St. Louis, Mi., USA) centrifugation. Erythrocytes were lysed via hypotonic shock. Neutrophils represented at least 97% of the cell suspension. Cell viability, estimated by trypan blue exclusion, was >98%. Neutrophils were suspended to a final concentration in HBSS. C. albicans (1×10^6) were opsonized with human AB serum in a shaking water bath for 30 minutes at 37° C. Organisms were then incubated with neutrophils in medium or in medium with α-MSH (1-13) or α-MSH (11-13) in concentrations of 10^−15 M to 10^−4 M in a shaking water bath for 2 hours at 37° C. After incubation, the culture tubes were placed on ice to stop growth and extracellular organisms were washed twice with centrifugation at 1000×g at 4° C. A 2.5% sodium desoxycholoate solution was added to obtain a suspension of 10^6 cells/ml. Two 1/100 serial dilutions in HBSS were made to obtain a final suspension of 100 cells/ml. Aliquots of 1 ml were dispensed on blood agar plates and incubated for 48 hours at 37° C. Colony forming units (CFUs) were counted at the end of the incubation period. Experiments were run in triplicate and repeated using blood from 5 different donors.

[1] = tested on: inflammation induced in the hind paw; assay: Kappa carrageenan-induced hind paw inflammation, spinal cord intact or transected; assay type: in vivo, BALB/c mice; settings: for inhibition of hind paw inflammation: central administration, spinal cord intact mice
Procedure: Because surgical dissection of trigeminal structures that innervate the ear of the mouse is very difficult, tests to learn whether descending neural pathways are essential to the anti-inflammatory activity of centrally administered α-MSH peptides were performed in mice with inflammation induced in a hind paw. In these experiments, each animal was anesthetized with pentobarbital sodium solution as above. Baseline footpad thickness of both hind paws was measured with a spring-loaded micrometer (Swiss Precision Instruments, Los Angeles, Calif.). Paw thickness was expressed in units of 10^−3 cm; average thickness of unstimulated paws was 171.5×10^−3 cm across shipments of animals. Kappa carrageenan (Sigma) dissolved in saline (0.05%, 20 μl) was injected (28 gauge allergy test syringe) into one footpad, and saline (20 μl) was injected into the other. For the analyses, the increase in thickness of the control saline-injected paw of each animal was subtracted from that of the carrageenan-injected paw, to eliminate the influence of mechanical injury and volume of the injected fluid. To be certain that mice with severed spinal cords can react to anti-inflammatory agents, prednisolone (2.5 mg/mouse (IP injection)) was administered to 10 mice with spinal transection and inflammation induced by carrageenan. Treatment with the locally acting steroid reduced swelling up to 29% (average, relative to saline controls) at 4.5 h. after carrageenan.
However, a standardized crushing of lumbar vertebrae with a hemostat was effective in severing the cord; no deaths were caused by this treatment. […] The experiments were limited to 4.5 h to reduce problems of bowel and bladder dysfunction. Immediately after the 4.5 h measurements all mice were killed with an overdose of sodium pentobarbital.
Because of the size of the experiments and the requirement for several shipments of animals over time, several experiments were performed, each with complete treatment and control groups drawn from the same shipment of mice. Omnibus analysis of variance techniques (Dynastat, Washington, D.C.) were used to test overall differences among group means. Tukey's protected t test was used to compare individual means. Probability values of <0.05 were considered significant.

TNF-α and iNOS mRNA = assay: Northern blot of TNF-α and iNOS mRNA in activated microglia; assay type: cell-based, murine
Procedure: Total cellular RNA was extracted from 10^6 adherent microglial cells plated in six-well tissue culture plates (Corning). Electrophoresis of RNA samples (10 μg/lane) was performed in 1% agarose/2.2 M formaldehyde gels and the gels subsequently blotted onto nylon filters by capillary action and baked for 2 h before prehybridization. The cDNA fragments encoding murine TNF-α and mouse macrophage iNOS were ^32P-labeled using the Ready-To-Go DNA Labeling Kit (Pharmacia, Uppsala, Sweden) before hybridization of nylon filters and autoradiography. Blots were subsequently rehybridized with human glyceraldehyde-3-phosphate dehydrogenase (G-3-PDH) cDNA probe as an internal control (Clontech Laboratories, Inc., Palo Alto, Calif.).

In the case of SYSMEHFRWGKPV [α-MSH (1-13)], the “relative potency in reducing C. albicans viability” value (C. albicans; 10^−4M melanocortin peptides) is reported as “the most effective”, the “effect on C. albicans colony forming units (CFU)” value (C. albicans; 2 hours at 37° C., vs. control) is reported as “greatly reduced; also recorded: significantly decreased C. albicans colony forming units; also recorded: inhibitory effect” and the “killing of C. albicans by human neutrophils” value (human neutrophils) is reported as “enhanced the killing”. For the same sequence, the “inhibition of hind paw inflammation” value ([1]; 3 h) was 57%, the “inhibition of hind paw inflammation” value ([1]; 4.5 h) was 29% and the “anti-inflammatory effect after spinal cord transection” value ([1]; centrally administered) was “significantly reduced the anti-inflammatory effect”. For the same sequence, the “anti-inflammatory effect after spinal cord transection” value ([1]; given intraperitoneally) was “significant, although smaller, inhibitory effect later in the period” and the “mRNA for TNF-α and iNOS (Northern blot)” value (TNF-α and iNOS mRNA) was “inhibition of mRNA transaction for TNF-α and iNOS”.
